Reference: the supplement of paper PMC11061612

How the values were obtained:
Assay in all cases: combination Emax (second highest fraction inhibited in the dose matrix, 72 h); higher = more inhibition; extreme values may be limits of the assay
[1] = system: SNU-449 (Hepatocellular Carcinoma)
How it was run: (§1)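 Bliss excess equals the observed combination effect minus the expected value EA + EB − EA·EB, where EA and EB are the effects of each agent alone. Combination Emax is the second-highest inhibition within the matrix. Inhibition was scaled from CellTiter-Glo 2.0 luminescence, with 0 set by vehicle wells and 1 by blank wells, after 72 hours of two-drug dosing of cells plated in 1536-well plates.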

[2] = system: HuCCT1 (Biliary Tract Carcinoma)
How it was run: as §1

[3] = system: HH (T-Cell Non-Hodgkin's Lymphoma)
How it was run: as §1

[4] = system: GAMG (Glioblastoma)
How it was run: as §1

[5] = system: WSU-NHL (B-Cell Non-Hodgkin's Lymphoma)
How it was run: as §1

[6] = system: TGBC1TKB (Biliary Tract Carcinoma)
How it was run: as §1

[7] = system: SAS (Oral Cavity Carcinoma)
How it was run: as §1

[8] = system: LOXIMVI (Melanoma)
How it was run: as §1

[9] = system: OVCAR-5 (Ovarian Carcinoma)
How it was run: as §1

[10] = system: NCI-H524 (Small Cell Lung Carcinoma)
How it was run: as §1

[11] = system: BE-13 (T-Lymphoblastic Leukemia)
How it was run: as §1

[12] = system: A673 (Ewing's Sarcoma)
How it was run: as §1

[13] = system: OV-56 (Ovarian Carcinoma)
How it was run: as §1

[14] = system: NCI-H2722 (Mesothelioma)
How it was run: as §1

[15] = system: Detroit562 (Head and Neck Carcinoma)
How it was run: as §1

[16] = system: HuH-7 (Hepatocellular Carcinoma)
How it was run: as §1

[17] = system: HeLa (Cervical Carcinoma)
How it was run: as §1

[18] = system: LCLC-97TM1 (Non-Small Cell Lung Carcinoma)
How it was run: as §1

[19] = system: Hs-746T (Gastric Carcinoma)
How it was run: as §1

[20] = system: CAL-72 (Osteosarcoma)
How it was run: as §1

Structure (SMILES)	combination Emax [1]	combination Emax [2]	combination Emax [3]	combination Emax [4]	combination Emax [5]	combination Emax [6]	combination Emax [7]	combination Emax [8]	combination Emax [9]	combination Emax [10]	combination Emax [11]	combination Emax [12]	combination Emax [13]	combination Emax [14]	combination Emax [15]	combination Emax [16]	combination Emax [17]	combination Emax [18]	combination Emax [19]	combination Emax [20]
CN(CCO)CC[C@H](CSc1ccccc1)Nc1ccc(S(=O)(=O)NC(=O)c2ccc(N3CCC([C@@H](O)c4ccccc4-c4ccc(Cl)cc4)CC3)cc2)cc1S(=O)(=O)C(F)(F)F [AZD4320] + CC(=O)O[C@H]1C(=O)[C@@]2(C)[C@H]([C@H](OC(=O)c3ccccc3)[C@]3(O)C[C@H](OC(=O)[C@H](O)[C@@H](NC(=O)c4ccccc4)c4ccccc4)C(C)=C1C3(C)C)[C@]1(OC(C)=O)CO[C@@H]1C[C@@H]2O [Paclitaxel] (first compound max 1 µM, 7x7, partner max 3 µM)	0.414	0.671	0.837	1	1	0.894	0.971	0.955	0.973	1	1	1	–	–	–	–	–	–	–	–
CN(CCO)CC[C@H](CSc1ccccc1)Nc1ccc(S(=O)(=O)NC(=O)c2ccc(N3CCC([C@@H](O)c4ccccc4-c4ccc(Cl)cc4)CC3)cc2)cc1S(=O)(=O)C(F)(F)F [AZD4320] + CCN(CCO)CCCOc1ccc2c(Nc3cc(CC(=O)Nc4cccc(F)c4)[nH]n3)ncnc2c1 [AZD2811] (first compound max 1 µM, 7x7, partner max 1 µM)	0.154	0.136	0.348	0.845	0.785	0.424	0.105	0.443	–	0.995	1	1	0.117	0.401	0.825	0.219	0.192	0.366	0.487	0.373
CN(CCO)CC[C@H](CSc1ccccc1)Nc1ccc(S(=O)(=O)NC(=O)c2ccc(N3CCC([C@@H](O)c4ccccc4-c4ccc(Cl)cc4)CC3)cc2)cc1S(=O)(=O)C(F)(F)F [AZD4320] + C[C@@H]1COCCN1C2=NC(=NC(=C2)C3(CC3)[S@](=N)(=O)C)C4=C5C=CNC5=NC=C4 [AZD6738] (first compound max 1 µM, 7x7, partner max 10 µM)	0.19	0.765	0.404	0.694	0.968	0.666	0.902	0.892	0.842	0.939	1	1	0.836	0.503	0.905	0.725	0.717	0.87	0.782	0.932
CN(CCO)CC[C@H](CSc1ccccc1)Nc1ccc(S(=O)(=O)NC(=O)c2ccc(N3CCC([C@@H](O)c4ccccc4-c4ccc(Cl)cc4)CC3)cc2)cc1S(=O)(=O)C(F)(F)F [AZD4320] + C[C@@H](Nc1cc(F)cc(F)c1)c1cc(C(=O)N(C)C)cc2c(=O)cc(N3CCOCC3)oc12 [AZD8186] (first compound max 1 µM, 7x7, partner max 3 µM)	0.313	0.35	0.455	0.615	1	0.802	0.77	0.507	0.351	0.892	1	0.971	0.277	0.555	0.666	0.583	0.359	0.343	0.677	0.487
CN(CCO)CC[C@H](CSc1ccccc1)Nc1ccc(S(=O)(=O)NC(=O)c2ccc(N3CCC([C@@H](O)c4ccccc4-c4ccc(Cl)cc4)CC3)cc2)cc1S(=O)(=O)C(F)(F)F [AZD4320] + Cc1cc2ncnn2cc1Nc1ncc2c(n1)n(C1CCOCC1)c(=O)n2C [AZD7648] (first compound max 1 µM, 7x7, partner max 10 µM)	0.166	0.26	0.265	0.286	0.86	0.577	0.118	0.343	0.17	0.822	0.981	0.937	0.149	0.159	0.22	0.279	0.0576	0.203	0.347	0.382
CN(CCO)CC[C@H](CSc1ccccc1)Nc1ccc(S(=O)(=O)NC(=O)c2ccc(N3CCC([C@@H](O)c4ccccc4-c4ccc(Cl)cc4)CC3)cc2)cc1S(=O)(=O)C(F)(F)F [AZD4320] + Nc1ccn([C@@H]2O[C@H](CO)[C@@H](O)C2(F)F)c(=O)n1 [Gemcitabine] (first compound max 1 µM, 7x7, partner max 0.3 µM)	0.367	0.476	0.293	0.889	0.995	0.408	0.983	0.925	0.633	0.906	1	0.995	–	–	–	–	–	–	–	0.854
COc1nnc2ccc(N3CCC(c4ccc(OCCN5CCN(C)C(=O)[C@H]5C)cc4)CC3)nn12 [AZD5153] + CN(CC[C@H](CSC1=CC=CC=C1)NC2=C(C=C(C=C2)S(=O)(=O)NC(=O)C3=CC=C(C=C3)N4CCC(CC4)[C@H](C5=CC=CC=C5C6=CC=C(C=C6)Cl)O)S(=O)(=O)C(F)(F)F)CCO [AZD4320] (first compound max 1 µM, 7x7, partner max 1 µM)	–	–	–	–	–	–	–	–	–	–	–	–	0.507	0.774	0.942	0.786	0.433	0.726	0.557	–
Cc1cc2ncnn2cc1Nc1ncc2c(n1)n(C1CCOCC1)c(=O)n2C [AZD7648] + COc1cc([C@@H]2c3cc4c(cc3[C@@H](O[C@@H]3O[C@@H]5CO[C@@H](C)O[C@H]5[C@H](O)[C@H]3O)[C@H]3COC(=O)[C@H]23)OCO4)cc(OC)c1O [Etoposide] (first compound max 10 µM, 7x7, partner max 10 µM)	0.296	0.648	0.141	0.872	1	0.326	0.985	0.699	0.546	0.617	0.976	0.855	–	–	–	–	–	–	–	0.822
CC(=O)c1c(C)c2cnc(Nc3ccc(N4CCNCC4)cn3)nc2n(C2CCCC2)c1=O [Palbociclib] + CN(CC[C@H](CSC1=CC=CC=C1)NC2=C(C=C(C=C2)S(=O)(=O)NC(=O)C3=CC=C(C=C3)N4CCC(CC4)[C@H](C5=CC=CC=C5C6=CC=C(C=C6)Cl)O)S(=O)(=O)C(F)(F)F)CCO [AZD4320] (first compound max 10 µM, 7x7, partner max 1 µM)	–	–	–	–	–	–	–	–	–	–	–	–	0.289	0.283	0.633	0.309	0.117	0.252	0.408	–
N#Cc1cnc(Nc2cc(NC[C@H]3CNCCO3)c(C(F)(F)F)cn2)cn1 [SRA737] + C=CCn1c(=O)c2cnc(Nc3ccc(N4CCN(C)CC4)cc3)nc2n1-c1cccc(C(C)(C)O)n1 [AZD1775] (first compound max 10 µM, partner max 1 µM)	0.562	0.812	0.475	0.726	0.989	0.271	0.824	0.562	0.762	0.912	0.993	0.635	–	–	–	–	–	–	–	0.88
N#Cc1cnc(Nc2cc(NC[C@H]3CNCCO3)c(C(F)(F)F)cn2)cn1 [SRA737] + CCc1c2c(nc3ccc(O)cc13)-c1cc3c(c(=O)n1C2)COC(=O)[C@]3(O)CC [SN-38] (first compound max 10 µM, 7x7, partner max 0.3 µM)	0.704	0.847	0.452	0.878	0.994	0.367	1	0.859	0.784	0.938	0.99	0.945	–	–	–	–	–	–	–	0.91
N#Cc1cnc(Nc2cc(NC[C@H]3CNCCO3)c(C(F)(F)F)cn2)cn1 [SRA737] + O=c1[nH]cc(F)c(=O)[nH]1 [5-Fluorouracil] (first compound max 10 µM, 7x7, partner max 20 µM)	0.293	0.839	0.188	0.315	0.965	0.0891	0.456	0.41	0.538	0.935	0.863	0.402	–	–	–	–	–	–	–	0.51
C[C@@H](c1ccc2nccn2c1)n1nnc2ncc(-c3cnn(C)c3)nc21 [Savolitinib] + CN(CC[C@H](CSC1=CC=CC=C1)NC2=C(C=C(C=C2)S(=O)(=O)NC(=O)C3=CC=C(C=C3)N4CCC(CC4)[C@H](C5=CC=CC=C5C6=CC=C(C=C6)Cl)O)S(=O)(=O)C(F)(F)F)CCO [AZD4320] (first compound max 1 µM, 7x7, partner max 1 µM)	–	–	–	–	–	–	–	–	–	–	–	–	0.212	0.308	0.237	0.265	0.13	0.101	0.753	–
